The values that follow come from patent US11230526B1, “Cylcoalkenyl derivatives useful as agonists of the GPR120 and/or GPR40 receptors” (Janssen Pharmaceutica NV, priority 2018, dated 2022).

One experiment addresses T1, Human GPR120 short form (Homo sapiens, UniProt Q5NUL3).
T1 construct: expressed in transfected cells
T1 sequence (Q5NUL3 1-361): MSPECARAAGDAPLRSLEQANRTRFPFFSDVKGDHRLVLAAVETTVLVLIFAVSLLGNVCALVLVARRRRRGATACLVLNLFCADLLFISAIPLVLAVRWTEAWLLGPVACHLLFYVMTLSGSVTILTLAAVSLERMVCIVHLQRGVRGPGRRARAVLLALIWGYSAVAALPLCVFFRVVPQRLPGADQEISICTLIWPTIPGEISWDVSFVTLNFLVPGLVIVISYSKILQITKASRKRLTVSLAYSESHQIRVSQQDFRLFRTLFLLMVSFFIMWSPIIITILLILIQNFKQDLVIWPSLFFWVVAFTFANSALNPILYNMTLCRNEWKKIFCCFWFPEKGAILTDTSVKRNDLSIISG
The experiment in a line: Human GPR120 calcium flux assay, Procedure Calcium B (4200 cells/well). It counts as cell-based. In outline:
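Agonist EC50 came from a four-parameter fit of RFU (Fmax−Fmin) read over 300 s on FLIPR. Cells were HEK293 stably transfected with human GPR120 (NM_001195755.1) at 4200 per well, serum-starved 1 h and loaded with Fluo-4 NW dye with probenecid before ligand addition.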
On the technique in general: A change in cytosolic calcium serves as a functional read-out for many receptors and channels.

In a further experiment the target is T2, human GPR40 (Homo sapiens, UniProt O14842).
T2 construct: expressed in transfected cells
The experiment in a line: GPR40 calcium flux assay, human GPR40. To be noted: HEK293 cells stably expressing GPR40; table does not say human or rat. The class given is cell-based. In a few lines: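 Cells preincubated 1 h at 37° C. in HBSS, 20 mM HEPES, 0.1% BSA, then Fluo 8 calcium dye 30 min at 37° C. and 15 min at room temperature.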

Where only a bound is given, the exact number is not on record here.

T2 sequence (O14842 whole entry): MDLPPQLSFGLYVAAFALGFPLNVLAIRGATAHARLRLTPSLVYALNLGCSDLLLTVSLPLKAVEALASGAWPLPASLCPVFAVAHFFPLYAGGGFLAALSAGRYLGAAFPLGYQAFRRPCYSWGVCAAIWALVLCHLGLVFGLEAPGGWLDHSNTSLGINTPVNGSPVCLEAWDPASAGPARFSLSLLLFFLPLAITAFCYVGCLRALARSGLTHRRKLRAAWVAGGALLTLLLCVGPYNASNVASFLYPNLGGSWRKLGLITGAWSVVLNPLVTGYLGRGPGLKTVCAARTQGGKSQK

Take `O=C(O)CCc1ccc(OCC2=C(c3ccc(OC(F)(F)F)cc3)CCC2)cc1C(F)(F)F` [Compound 308, 3-[4-[[2-[4-(trifluoromethoxy)phenyl]cyclopenten-1-yl]methoxy]-2-(trifluoromethyl)phenyl]Propanoic Acid]: the EC50 at Human GPR120 short form is more than 5000 nM; at human GPR40, 899 nM.
Regarding `Cc1ccc(C2=C(COc3ccc(CCC(=O)O)c(Cl)c3)CCC2)cc1` [Compound 310, 3-[2-chloro-4-[[2-(p-tolyl)cyclopenten-1-yl]methoxy]phenyl]Propanoic Acid], the EC50 on Human GPR120 short form amounted to 209 nM; on human GPR40 it was 1120 nM.
With `O=C(O)CCc1ccc(OCC2=C(c3ccc(OC(F)(F)F)cc3)CCC2)cc1Cl` [Compound 311, 3-[2-chloro-4-[[2-[4-(trifluoromethoxy)phenyl]cyclopenten-1-yl]methoxy]phenyl]Propanoic Acid], the EC50 was more than 5000 nM at Human GPR120 short form and 792 nM on human GPR40.
Take `Cc1cccc(C2=C(COc3ccc(CCC(=O)O)c(C(F)(F)F)c3)CCC2)c1` [Compound 312, 3-[4-[[2-(m-tolyl)cyclopenten-1-yl]methoxy]-2-(trifluoromethyl)phenyl]Propanoic Acid]: the results for the EC50 on Human GPR120 short form and on human GPR40 were 612 nM and 402 nM, respectively.
The corresponding values for `O=C(O)CCc1ccc(OCC2=C(c3ccccc3Cl)CCC2)cc1C(F)(F)F` [Compound 313, 3-[4-[[2-(2-chlorophenyl)cyclopenten-1-yl]methoxy]-2-(trifluoromethyl)phenyl]Propanoic Acid] are 855 nM and 191 nM.
As for `Cc1cc(OCC2=C(Cc3ccccc3)CCC2)c(F)cc1CCC(=O)O` [Compound 314, 3-[4-[(2-benzylcyclopenten-1-yl)methoxy]-5-fluoro-2-methyl-phenyl]Propanoic Acid], the values for the EC50 at Human GPR120 short form and on human GPR40 were 765 nM and 461 nM, respectively.
As to `Cc1cc(CCC(=O)O)ccc1OCC1=C(Cc2ccccc2)CCC1` [Compound 315, 3-[4-[(2-benzylcyclopenten-1-yl)methoxy]-3-methyl-phenyl]Propanoic Acid], the EC50 at Human GPR120 short form is 185 nM; on human GPR40 it was more than 5000 nM.
For `CC1CCC(COc2ccc(CCC(=O)O)c(C(F)(F)F)c2)=C1c1ccc(Cl)cc1` (stereo not drawn) [Compound 316, 3-[4-[[2-(4-chlorophenyl)-3-methyl-cyclopenten-1-yl]methoxy]-2-(trifluoromethyl)phenyl]Propanoic Acid] the same measures were 2430 nM and 164 nM.
In the case of `Cc1cc(OCC2=C(c3ccc(Cl)cc3)C(C)CC2)c(F)cc1CCC(=O)O` (stereo not drawn) [Compound 317, 3-[4-[[2-(4-chlorophenyl)-3-methyl-cyclopenten-1-yl]methoxy]-5-fluoro-2-methyl-phenyl]Propanoic Acid], the EC50 is 866 nM on Human GPR120 short form and 746 nM at human GPR40.
Turning to `O=C(O)CCc1ccc(OCC2=C(Cc3ccccc3)CCC2)cc1C(F)(F)F` [Compound 319, 3-[4-[(2-benzylcyclopenten-1-yl)methoxy]-2-(trifluoromethyl)phenyl]Propanoic Acid], the EC50 came out at 623 nM on Human GPR120 short form and 55 nM on human GPR40.
For the molecule `CC1CCC(COc2ccc(CCC(=O)O)c(Cl)c2)=C1c1ccccc1` (stereo not drawn) [Compound 320, 3-[2-chloro-4-[(3-methyl-2-phenyl-cyclopenten-1-yl)methoxy]phenyl]Propanoic Acid], the EC50 on Human GPR120 short form amounted to 998 nM; at human GPR40, 543 nM.
For the molecule `CC1CCC(COc2ccc(CCC(=O)O)cc2)=C1c1ccccc1` (stereo not drawn) [Compound 321, 3-[4-[(3-methyl-2-phenyl-cyclopenten-1-yl)methoxy]phenyl]Propanoic Acid], the EC50 on Human GPR120 short form is 733 nM; on human GPR40, 2640 nM.
On to `O=C(O)CCc1ccc(OCC2=C(Cc3ccccc3)CCC2)cc1` [Compound 322, 3-[4-[(2-benzylcyclopenten-1-yl)methoxy]phenyl]Propanoic Acid], for which the EC50 on Human GPR120 short form came to 1140 nM; at human GPR40 it was 328 nM.
Regarding `Cc1cc(OCC2=C(c3ccccc3)C(C)CC2)c(F)cc1CCC(=O)O` (stereo not drawn) [Compound 323, 3-[5-fluoro-2-methyl-4-[(3-methyl-2-phenyl-cyclopenten-1-yl)methoxy]phenyl]Propanoic Acid], the EC50 on Human GPR120 short form came out at 1070 nM; on human GPR40, 2230 nM.
The corresponding values for `Cc1cc(OCC2=C(c3ccc(OC(F)(F)F)cc3)CCC2)c(F)cc1CCC(=O)O` [Compound 325, 3-[5-fluoro-2-methyl-4-[[2-[4-(trifluoromethoxy)phenyl]cyclopenten-1-yl]methoxy]phenyl]Propanoic Acid] are more than 5000 nM and 2770 nM.
For `Cc1ccc(C2=C(COc3cc(C)c(CCC(=O)O)cc3F)CCC2)cc1` [Compound 326, 3-[5-fluoro-2-methyl-4-[[2-(p-tolyl)cyclopenten-1-yl]methoxy]phenyl]Propanoic Acid] the same measures were 157 nM and 4780 nM.
In the case of `CC1CCC(COc2ccc(CCC(=O)O)c(Cl)c2)=C1c1ccc(Cl)cc1` (stereo not drawn) [Compound 327, 3-[2-chloro-4-[[2-(4-chlorophenyl)-3-methyl-cyclopenten-1-yl]methoxy]phenyl]Propanoic Acid], the EC50 was found to be 983 nM on Human GPR120 short form and 205 nM on human GPR40.
The corresponding values for `CC1CCC(COc2ccc(CCC(=O)O)cc2)=C1c1ccc(Cl)cc1` (stereo not drawn) [Compound 328, 3-[4-[[2-(4-chlorophenyl)-3-methyl-cyclopenten-1-yl]methoxy]phenyl]Propanoic Acid] are 307 nM and 639 nM.
In the case of `O=C(O)CCc1ccc(OCC2=C(Cc3ccccc3)CCC2)cc1Cl` [Compound 329, 3-[4-[(2-benzylcyclopenten-1-yl)methoxy]-2-chloro-phenyl]Propanoic Acid], the figures for the EC50 on Human GPR120 short form and at human GPR40 were 1600 nM and 101 nM, respectively.
`O=C(O)CCc1cc(F)c(OCC2=C(Cc3ccccc3)CCC2)c(F)c1` [Compound 330, 3-[4-[(2-benzylcyclopenten-1-yl)methoxy]-3,5-difluoro-phenyl]Propanoic Acid]: the results for the EC50 at Human GPR120 short form and at human GPR40 were 492 nM and more than 5000 nM, respectively.
For `Cc1ccc(C2=C(COc3ccc(CCC(=O)O)c(C(F)(F)F)c3)CCC2)c(C(C)C)c1` [Compound 331, 3-[4-[[2-(2-isopropyl-4-methyl-phenyl)cyclopenten-1-yl]methoxy]-2-(trifluoromethyl)phenyl]Propanoic Acid] the same measures were more than 5000 nM and 3340 nM.
For `CC1CCC(c2ccc(Cl)cc2)=C1COc1ccc(CCC(=O)O)cc1` (stereo not drawn) [Compound 332, 3-[4-[[2-(4-chlorophenyl)-5-methyl-cyclopenten-1-yl]methoxy]phenyl]Propanoic Acid] the same measures were 191 nM and 1300 nM.
For `Cc1cc(OCC2=C(c3ccc(Cl)cc3)CCC2C)c(F)cc1CCC(=O)O` (stereo not drawn) [Compound 333, 3-[4-[[2-(4-chlorophenyl)-5-methyl-cyclopenten-1-yl]methoxy]-5-fluoro-2-methyl-phenyl]Propanoic Acid] the same measures were 427 nM and 1010 nM.
`CC1CCC(c2ccccc2)=C1COc1ccc(CCC(=O)O)c(Cl)c1` (stereo not drawn) [Compound 334, 3-[2-chloro-4-[(5-methyl-2-phenyl-cyclopenten-1-yl)methoxy]phenyl]Propanoic Acid]: the EC50 at Human GPR120 short form is 1730 nM; on human GPR40, 2130 nM.
Turning to `CC1CCC(c2ccc(Cl)cc2)=C1COc1ccc(CCC(=O)O)c(C(F)(F)F)c1` (stereo not drawn) [Compound 336, 3-[4-[[2-(4-chlorophenyl)-5-methyl-cyclopenten-1-yl]methoxy]-2-(trifluoromethyl)phenyl]Propanoic Acid], the EC50 turned out to be 562 nM at Human GPR120 short form and 428 nM at human GPR40.
Consider `CC1CCC(c2ccc(Cl)cc2)=C1COc1ccc(CCC(=O)O)c(Cl)c1` (stereo not drawn) [Compound 337, 3-[2-chloro-4-[[2-(4-chlorophenyl)-5-methyl-cyclopenten-1-yl]methoxy]phenyl]Propanoic Acid], for which the results for the EC50 at Human GPR120 short form and on human GPR40 were 336 nM and 519 nM, respectively.
For `Cc1cc(OCC2=C(c3ccccc3)CCC2C)c(F)cc1CCC(=O)O` (stereo not drawn) [Compound 338, 3-[5-fluoro-2-methyl-4-[(5-methyl-2-phenyl-cyclopenten-1-yl)methoxy]phenyl]Propanoic Acid], the EC50 at Human GPR120 short form is 725 nM; at human GPR40, 2860 nM.
Turning to `Cc1cc(OCC2=C(c3cc(Cl)ccc3F)CCC2)c(F)cc1CCC(=O)O` [Compound 339, 3-[4-[[2-(5-chloro-2-fluoro-phenyl)cyclopenten-1-yl]methoxy]-5-fluoro-2-methyl-phenyl]Propanoic Acid], the EC50 at Human GPR120 short form amounted to 803 nM; at human GPR40, 356 nM.
`Cc1ccc(F)c(C2=C(COc3cc(C)c(CCC(=O)O)cc3F)CCC2)c1` [Compound 340, 3-[5-fluoro-4-[[2-(2-fluoro-5-methyl-phenyl)cyclopenten-1-yl]methoxy]-2-methyl-phenyl]Propanoic Acid]: the EC50 on Human GPR120 short form was 743 nM; on human GPR40 it was 944 nM.
For `Cc1ccc(F)c(C2=C(COc3ccc(CCC(=O)O)c(C(F)(F)F)c3)CCC2)c1` [Compound 341, 3-[4-[[2-(2-fluoro-5-methyl-phenyl)cyclopenten-1-yl]methoxy]-2-(trifluoromethyl)phenyl]Propanoic Acid] the same measures were 447 nM and 281 nM.

One may read the EC50 as the concentration at which the effect is half-maximal.
